Columns and labels:
[1] = Displacement of [3H]DTG from sigma 2 receptor in rat liver membrane; assay type: cell membranes
Rattus norvegicus = organism: Rattus norvegicus; test: Selectivity ratio of Ki for rat liver sigma 2 receptor to Ki for rat liver sigma 1 receptor
[2] = target: Sigma non-opioid intracellular receptor 1 (Rattus norvegicus, UniProt Q9R0C9); test: Displacement of [3H](+)-pentazocine from sigma 1 receptor in rat liver membrane; assay type: cell membranes
Sigma non-opioid intracellular receptor 1, sequence (Q9R0C9 whole entry): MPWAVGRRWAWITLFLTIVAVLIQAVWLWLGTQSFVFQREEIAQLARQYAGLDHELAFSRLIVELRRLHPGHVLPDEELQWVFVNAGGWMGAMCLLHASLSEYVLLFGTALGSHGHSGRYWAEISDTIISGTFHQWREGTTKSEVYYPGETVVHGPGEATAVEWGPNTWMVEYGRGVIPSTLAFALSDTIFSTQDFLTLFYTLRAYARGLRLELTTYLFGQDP

SMILES | Ki [1] | Ratio Ki (Rattus norvegicus) | Ki [2]
CCC(=O)c1ccc2c(c1)oc(=O)n2CCCN1CCCCC1 | 8.5 nM | 58 | –
O=c1oc2ccccc2n1CC1CCN(Cc2ccc(F)cc2)CC1 | 170 nM | 44 | 3.9 nM
CC(C)=CCN1CC[C@]2(C)c3cc(O)ccc3C[C@H]1[C@H]2C [(+)-PENTAZOCINE] | 327 nM | – | –
O=c1oc2ccccc2n1CC1CCN(Cc2ccc(Cl)cc2)CC1 | 427 nM | – | –
Cc1ccc(CN2CCC(Cn3c(=O)oc4ccccc43)CC2)cc1 | 116 nM | 40 | 2.9 nM
Cc1ccc(CN(C)CCCCc2cn(-c3ccc(F)cc3)c3ccccc23)c(C)c1 | 5.9 nM | 0.05 | –
Cc1ccc(CN2CCC(Cn3c(=O)oc4ccccc43)CC2)c(C)c1 | 187 nM | 6 | 30 nM
O=c1oc2ccccc2n1CC1CCN(Cc2ccccc2F)CC1 | 213 nM | 9 | 23 nM
O=c1oc2ccccc2n1CC1CCN(Cc2ccc(-c3ccccc3)cc2)CC1 | > 10000 nM | > 25 | 394 nM
O=c1oc2ccccc2n1CC1CCN(Cc2cccc3ccccc23)CC1 | 1290 nM | – | –
O=c1oc2ccccc2n1CC1CCN(Cc2ccccc2Cl)CC1 | 299 nM | – | –
CN(CCCc1cn(-c2ccc(F)cc2)c2ccccc12)Cc1ccccc1 | 5.9 nM | 22 | –
Cc1ccccc1CN1CCC(Cn2c(=O)oc3ccccc32)CC1 | 338 nM | 10 | 33 nM
O=c1oc2ccccc2n1CC1CCN(Cc2ccc(Cl)cc2Cl)CC1 | 382 nM | 1.5 | 258 nM
Cc1ccccc1NC(=N)Nc1ccccc1C [DITOLYLGUANIDINE] | 130 nM | – | –
Cc1cc(C)c(CN2CCC(Cn3c(=O)oc4ccccc43)CC2)c(C)c1 | 2880 nM | 0.5 | 6230 nM
O=c1oc2ccccc2n1CC1CCN(Cc2ccccc2)CC1 | 246 nM | – | –
O=C(CCCN1CCC(O)(c2ccc(Cl)cc2)CC1)c1ccc(F)cc1 [HALOPERIDOL] | 235 nM | – | –

Reference: ChEMBL document CHEMBL1152852, “Substituted benzo[d]oxazol-2(3H)-one derivatives with preference for the sigma1 binding site” (Eur J Med Chem, 2009)
